From paper PMC9944328 (Nature Communications, 2023)
Where two headings read alike, the source gives them in different places.

Test system: SSTR2 mutants
Test: NanoBiT β-arrestin 1 recruitment assay, HEK293 (SSTR2 mutants);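 on Best-fit values Bottom: percent of maximal wild-type response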;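 on Best-fit values Span: percent of maximal wild-type response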;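 on Best-fit values Top: percent of maximal wild-type response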;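 on Bottom (best-fit): percent of maximal wild-type response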;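 on Span (best-fit): percent of maximal wild-type response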;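 on Top (best-fit value): percent of maximal wild-type response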;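 on Top (best-fit): percent of maximal wild-type response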;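 on Top: percent of maximal wild-type response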
Type: cell-based, human
Design: Bottom / Span / Bottom (best-fit) / Span (best-fit) / Best-fit values Bottom / Best-fit values Span / Bottom (best-fit value) / Span (best-fit value):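 percent of maximal wild-type response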
Description: The NanoBiT β-arrestin 1 recruitment assays were carried out according to the method described previously. […] Human full-length SSTR wild-type and mutant vectors were C-terminally fused with a 15-amino acid flexible linker and the small fragment (SmBiT). HEK293 cells were seeded into six-well microplates at a density of 1.0 × 10^6 cells/well and cultured for 24 h at 37 °C with 5% CO2. After that, cells were co-transfected with pcDNA3.1+ vectors encoding SSTR wild-type or mutants and human β-arrestin 1. After transfecting for 24 h, the transfected cells were suspended and seeded into white 96-well plates, and then cultured at 37 °C overnight. After that the medium in each well was exchanged for 90 μl of 0.01% bovine serum albumin containing 20 μl of 50 μM coelenterazine h (Carbosynth) diluted in the HBSS assay buffer and incubated for 40 min at room temperature. Then, ligands diluted in the assay buffer was added to each well and the luminescence intensity was measured using the Synergy H1 microplate reader and detected at room temperature in a time period. All data presented are means of at least three independent experiments.

[1] = D295A-1 (run 1), β-arrestin1 recruitment
[2] = D295A-2 (run 2), β-arrestin1 recruitment
[3] = D295A-3 (run 3), β-arrestin1 recruitment
[4] = L290A-1 (run 1), β-arrestin1 recruitment
[5] = L290A-2 (run 2), β-arrestin1 recruitment
[6] = L290A-3 (run 3), β-arrestin1 recruitment
[7] = S279A-1 (run 1), β-arrestin1 recruitment
[8] = S279A-2 (run 2), β-arrestin1 recruitment
[9] = S279A-3 (run 3), β-arrestin1 recruitment
[10] = Y302A-1 (run 1), β-arrestin1 recruitment
[11] = Y302A-2 (run 2), β-arrestin1 recruitment
[12] = Y302A-3 (run 3), β-arrestin1 recruitment
[13] = best-fit value, I195A-1 (run 1)
[14] = best-fit value, I195A-2 (run 2)
[15] = best-fit value, I195A-3 (run 3)

SMILES: C[C@@H](O)[C@@H]1NC(=O)[C@H](CCCCN)NC(=O)[C@@H](Cc2c[nH]c3ccccc23)NC(=O)[C@H](Cc2ccccc2)NC(=O)[C@@H](NC(=O)[C@H](N)Cc2ccccc2)CSSC[C@@H](C(=O)N[C@H](CO)[C@@H](C)O)NC1=O [octreotide]
- Bottom (best-fit value) [1]: 0.2059
- LogEC50 (best-fit value) [1]: -6.975
- Span (best-fit value) [1]: 90.14
- Top (best-fit value) [1]: 90.34
- EC50 (D295A-1 (run 1), β-arrestin1 recruitment, read-out: EC50 (best-fit value)): 106 nM
- Bottom (best-fit value) [2]: -0.553
- LogEC50 (best-fit value) [2]: -6.954
- Span (best-fit value) [2]: 94.35
- Top (best-fit value) [2]: 93.8
- EC50 (D295A-2 (run 2), β-arrestin1 recruitment, read-out: EC50 (best-fit value)): 111 nM
- Bottom (best-fit value) [3]: -6.587
- LogEC50 (best-fit value) [3]: -6.025
- Span (best-fit value) [3]: 251.8
- Top (best-fit value) [3]: 245.2
- EC50 (D295A-3 (run 3), β-arrestin1 recruitment, read-out: EC50 (best-fit value)): 944 nM
- Bottom (best-fit) (F127A-1): -1.151
- LogEC50 (best-fit) (F127A-1): -8.337
- Span (best-fit) (F127A-1): 58.78
- Top (best-fit) (F127A-1): 57.63
- EC50 (F127A-1, read-out: EC50 (best-fit)): 4.6 nM
- Bottom (best-fit) (F127A-2): -1.134
- LogEC50 (best-fit) (F127A-2): -8.363
- Span (best-fit) (F127A-2): 52.24
- Top (best-fit) (F127A-2): 51.1
- EC50 (F127A-2, read-out: EC50 (best-fit)): 4.33 nM
- Bottom (best-fit) (F127A-3): -1.083
- LogEC50 (best-fit) (F127A-3): -8.391
- Span (best-fit) (F127A-3): 50.21
- Top (best-fit) (F127A-3): 49.13
- EC50 (F127A-3, read-out: EC50 (best-fit)): 4.07 nM
- Bottom (best-fit) (F208A-1): -1.787
- LogEC50 (best-fit) (F208A-1): -6.773
- Span (best-fit) (F208A-1): 82.48
- Top (best-fit) (F208A-1): 80.69
- EC50 (F208A-1, read-out: EC50 (best-fit)): 169 nM
- Bottom (best-fit) (F208A-2): -1.774
- LogEC50 (best-fit) (F208A-2): -6.823
- Span (best-fit) (F208A-2): 91.81
- Top (best-fit) (F208A-2): 90.03
- EC50 (F208A-2, read-out: EC50 (best-fit)): 150 nM
- Bottom (best-fit) (F208A-3): -1.249
- LogEC50 (best-fit) (F208A-3): -6.77
- Span (best-fit) (F208A-3): 80.71
- Top (best-fit) (F208A-3): 79.46
- EC50 (F208A-3, read-out: EC50 (best-fit)): 170 nM
- β-arrestin recruitment of mutant (F294(7.35)A): nearly impaired the octreotide-induced β-arrestin recruitment
- β-arrestin signal of mutants (I284ECL3A and K291(7.32)A): reduced potency and efficacy of octreotide induced β-arrestin signal
- Bottom (best-fit value) [4]: 5.848
- LogEC50 (best-fit value) [4]: -8.723
- Span (best-fit value) [4]: 78.77
- Top (best-fit value) [4]: 84.62
- EC50 (L290A-1 (run 1), β-arrestin1 recruitment, read-out: EC50 (best-fit value)): 1.89 nM
- Bottom (best-fit value) [5]: 5.656
- LogEC50 (best-fit value) [5]: -8.77
- Span (best-fit value) [5]: 81.03
- Top (best-fit value) [5]: 86.69
- EC50 (L290A-2 (run 2), β-arrestin1 recruitment, read-out: EC50 (best-fit value)): 1.7 nM
- Bottom (best-fit value) [6]: -1.116
- LogEC50 (best-fit value) [6]: -8.203
- Span (best-fit value) [6]: 76.53
- Top (best-fit value) [6]: 75.41
- EC50 (L290A-3 (run 3), β-arrestin1 recruitment, read-out: EC50 (best-fit value)): 6.27 nM
- β-arrestin recruitment of mutant (N276(6.55)A): nearly abolished the recruitment of β-arrestin
- Best-fit values Bottom (P220A-1): 0.1149
- Best-fit values LogEC50 (P220A-1): -6.553
- Best-fit values Span (P220A-1): 34.49
- Best-fit values Top (P220A-1): 34.6
- EC50 (P220A-1, read-out: Best-fit values EC50): 280 nM
- Best-fit values Bottom (P220A-2): -0.6221
- Best-fit values LogEC50 (P220A-2): -7.989
- Best-fit values Span (P220A-2): 58.87
- Best-fit values Top (P220A-2): 58.25
- EC50 (P220A-2, read-out: Best-fit values EC50): 10.3 nM
- Best-fit values Bottom (P220A-3): -0.6988
- Best-fit values LogEC50 (P220A-3): -8.034
- Best-fit values Span (P220A-3): 50.86
- Best-fit values Top (P220A-3): 50.16
- EC50 (P220A-3, read-out: Best-fit values EC50): 9.24 nM
- Bottom (best-fit value) [7]: -1.308
- LogEC50 (best-fit value) [7]: -8.149
- Span (best-fit value) [7]: 94.92
- Top (best-fit value) [7]: 93.61
- EC50 (S279A-1 (run 1), β-arrestin1 recruitment, read-out: EC50 (best-fit value)): 7.09 nM
- Bottom (best-fit value) [8]: -2.227
- Span (best-fit value) [8]: 74.73
- Top (best-fit value) [8]: 72.5
- EC50 (S279A-2 (run 2), β-arrestin1 recruitment, read-out: EC50 (best-fit value)): 21.4 nM
- Bottom (best-fit value) [9]: 0.9887
- LogEC50 (best-fit value) [9]: -6.436
- Span (best-fit value) [9]: 131.8
- Top (best-fit value) [9]: 132.8
- EC50 (S279A-3 (run 3), β-arrestin1 recruitment, read-out: EC50 (best-fit value)): 366 nM
- Best-fit values Bottom (W269A-1): 0.3902
- Best-fit values LogEC50 (W269A-1): -7.096
- Best-fit values Span (W269A-1): 27.42
- Best-fit values Top (W269A-1): 27.81
- EC50 (W269A-1, read-out: Best-fit values EC50): 80.1 nM
- Best-fit values LogEC50 (W269A-2): -7.281
- Best-fit values Span (W269A-2): 32.61
- Best-fit values Top (W269A-2): 36.93
- EC50 (W269A-2, read-out: Best-fit values EC50): 52.3 nM
- Best-fit values Bottom (W269A-3): 3.687
- Best-fit values LogEC50 (W269A-3): -7.475
- Best-fit values Span (W269A-3): 31.64
- Best-fit values Top (W269A-3): 35.33
- EC50 (W269A-3, read-out: Best-fit values EC50): 33.5 nM
- Bottom (best-fit) (Y205A-1): -3.221
- LogEC50 (best-fit) (Y205A-1): -7.699
- Span (best-fit) (Y205A-1): 139.2
- Top (best-fit) (Y205A-1): 135.9
- EC50 (Y205A-1, read-out: EC50 (best-fit)): 20 nM
- Bottom (best-fit) (Y205A-2): -1.321
- LogEC50 (best-fit) (Y205A-2): -8.57
- Span (best-fit) (Y205A-2): 93.02
- Top (best-fit) (Y205A-2): 91.7
- EC50 (Y205A-2, read-out: EC50 (best-fit)): 2.69 nM
- Bottom (best-fit) (Y205A-3): 0.3514
- LogEC50 (best-fit) (Y205A-3): -7.837
- Span (best-fit) (Y205A-3): 328.7
- Top (best-fit) (Y205A-3): 329.1
- EC50 (Y205A-3, read-out: EC50 (best-fit)): 14.5 nM
- β-arrestin recruitment of mutant (Y302(7.43)A): slightly impaired
- Bottom (best-fit value) [10]: -0.3068
- LogEC50 (best-fit value) [10]: -8.733
- Span (best-fit value) [10]: 87.43
- Top (best-fit value) [10]: 87.12
- EC50 (Y302A-1 (run 1), β-arrestin1 recruitment, read-out: EC50 (best-fit value)): 1.85 nM
- Bottom (best-fit value) [11]: 0.826
- LogEC50 (best-fit value) [11]: -8.763
- Span (best-fit value) [11]: 86.05
- Top (best-fit value) [11]: 86.87
- EC50 (Y302A-2 (run 2), β-arrestin1 recruitment, read-out: EC50 (best-fit value)): 1.72 nM
- Bottom (best-fit value) [12]: 1.139
- LogEC50 (best-fit value) [12]: -8.739
- Span (best-fit value) [12]: 85.71
- Top (best-fit value) [12]: 86.85
- EC50 (Y302A-3 (run 3), β-arrestin1 recruitment, read-out: EC50 (best-fit value)): 1.82 nM
- Bottom [13]: -0.3262
- LogEC50 [13]: -7.224
- Span [13]: 58.86
- Top [13]: 58.54
- EC50 (best-fit value, I195A-1 (run 1), read-out: EC50): 59.8 nM
- Bottom [14]: -0.9813
- LogEC50 [14]: -7.334
- Span [14]: 61.03
- Top [14]: 60.04
- EC50 (best-fit value, I195A-2 (run 2), read-out: EC50): 46.3 nM
- Bottom [15]: -0.6923
- LogEC50 [15]: -7.245
- Span [15]: 59.4
- Top [15]: 58.71
- EC50 (best-fit value, I195A-3 (run 3), read-out: EC50): 56.9 nM
- Bottom (best-fit value, L99A-1 (run 1)): 17.86
- LogEC50 (best-fit value, L99A-1 (run 1)): -6.902
- Span (best-fit value, L99A-1 (run 1)): 95.94
- Top (best-fit value, L99A-1 (run 1)): 113.8
- Bottom (best-fit value, L99A-2 (run 2)): -2.171
- LogEC50 (best-fit value, L99A-2 (run 2)): -7.606
- Span (best-fit value, L99A-2 (run 2)): 48.46
- Top (best-fit value, L99A-2 (run 2)): 46.29
- EC50 (best-fit value, L99A-2 (run 2), read-out: EC50): 24.8 nM
- Bottom (best-fit value, L99A-3 (run 3)): -2.89
